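The compound was tested at five concentrations on cells cultured in 96-well plates, with a 48-hour exposure period. Here, GI50 denotes the concentration required for 50% inhibition of growth. TGI: total growth inhibition.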
Assays:
Test in all cases: NCI-60 cell line screen, 48 h
[1] = test system: SNB-75 CNS
[2] = test system: SN12C renal
[3] = test system: OVCAR-8 ovarian
[4] = test system: NCI-H226 lung
[5] = test system: NCI-H460 lung
[6] = test system: CCRF-CEM leukemia
[7] = test system: ACHN renal
[8] = test system: SF-268 CNS
[9] = test system: NCI/ADR-RES ovarian
[10] = test system: HOP-62 NSCLC
[11] = test system: SK-MEL-28 melanoma
[12] = test system: 786-0 renal
[13] = test system: RPMI-8226 leukemia
[14] = test system: M14 melanoma
[15] = test system: SK-MEL-2 melanoma
[16] = test system: COLO 205 colon
[17] = test system: HOP-92 NSCLC
[18] = test system: NCI-H23 lung
[19] = test system: MCF7 breast
[20] = test system: SR leukemia
[21] = test system: KM12 colon
[22] = test system: MDA-MB-435
[23] = test system: HT29 colon
[24] = test system: A549 NSCLC
[25] = test system: RXF 393 renal
[26] = test system: OVCAR-4 ovarian
[27] = test system: SK-MEL-5 melanoma
[28] = test system: UACC-62 melanoma
[29] = test system: SW-620 colon
[30] = test system: OVCAR-3 ovarian
[31] = test system: UO-31 renal
[32] = test system: OVCAR-5 ovarian
[33] = test system: CAKI-1 renal
[34] = test system: PC-3 prostate
[35] = test system: SNB-19 CNS
[36] = test system: T-47D breast
[37] = test system: SF-295 CNS
[38] = test system: UACC-257 melanoma
[39] = test system: EKVX NSCLC
[40] = test system: TK-10 renal
[41] = test system: A498 renal
[42] = test system: MALME-3M melanoma
[43] = test system: U251 CNS
[44] = test system: HCC-2998 colon
[45] = test system: BT-549 breast
[46] = test system: HCT-116 colon
[47] = test system: IGROV1 ovarian
[48] = test system: MDA-MB-231 breast
[49] = test system: HS 578T breast
[50] = test system: HCT-15 colon
[51] = test system: SK-OV-3 ovarian
[52] = test system: DU-145 prostate
[53] = test system: K-562 leukemia
[54] = test system: SF-539 CNS
[55] = test system: LOX IMVI melanoma
[56] = test system: HL-60(TB) leukemia
[57] = test system: NCI-H522 lung
[58] = test system: MOLT-4 leukemia

O=C1Cc2c([nH]c3ccccc23)C2(CC3CCCCN13)OCCO2 (configuration not stated)
TGI [1]: > 100 µM
TGI [2]: > 100 µM
TGI [3]: > 100 µM
TGI [4]: > 100 µM
TGI [5]: > 100 µM
TGI [6]: > 100 µM
TGI [7]: > 100 µM
TGI [8]: > 100 µM
TGI [9]: > 100 µM
TGI [10]: > 100 µM
TGI [11]: > 100 µM
TGI [12]: > 100 µM
TGI [13]: > 100 µM
TGI [14]: > 100 µM
TGI [15]: > 100 µM
TGI [16]: > 100 µM
TGI [17]: > 100 µM
TGI [18]: > 100 µM
TGI [19]: > 100 µM
TGI [20]: > 100 µM
TGI [21]: > 100 µM
TGI [22]: > 100 µM
TGI [23]: > 100 µM
TGI [24]: > 100 µM
TGI [25]: > 100 µM
TGI [26]: > 100 µM
TGI [27]: > 100 µM
TGI [28]: > 100 µM
TGI [29]: > 100 µM
TGI [30]: > 100 µM
TGI [31]: > 100 µM
TGI [32]: > 100 µM
TGI [33]: > 100 µM
TGI [34]: > 100 µM
TGI [35]: > 100 µM
TGI [36]: > 100 µM
TGI [37]: > 100 µM
TGI [38]: > 100 µM
TGI [39]: > 100 µM
TGI [40]: > 100 µM
TGI [41]: > 100 µM
TGI [42]: > 100 µM
TGI [43]: > 100 µM
TGI [44]: > 100 µM
TGI [45]: > 100 µM
TGI [46]: > 100 µM
TGI [47]: > 100 µM
TGI [48]: > 100 µM
TGI [49]: > 100 µM
TGI [50]: > 100 µM
TGI [51]: > 100 µM
TGI [52]: > 100 µM

COc1ccc(/C=C/c2nnc(/C=C/c3ccc(OC)c(OC)c3)o2)cc1OC
GI50 [1]: 4.22 µM
TGI [1]: 45.5 µM
GI50 [2]: 5.5 µM
TGI [2]: > 100 µM
GI50 [3]: 8.78 µM
TGI [3]: > 100 µM
GI50 [4]: 14.9 µM
TGI [4]: > 100 µM
GI50 [5]: 4.23 µM
TGI [5]: > 100 µM
GI50 [6]: 3.97 µM
TGI [6]: > 100 µM
GI50 [7]: 13.9 µM
TGI [7]: > 100 µM
GI50 [8]: 7.77 µM
TGI [8]: > 100 µM
GI50 [9]: 3.52 µM
TGI [9]: > 100 µM
GI50 [10]: 5.21 µM
TGI [10]: > 100 µM
GI50 [11]: 4.96 µM
TGI [11]: > 100 µM
GI50 [12]: 5.59 µM
TGI [12]: > 100 µM
GI50 [13]: 2.65 µM
TGI [13]: > 100 µM
GI50 [14]: 3.1 µM
TGI [14]: 26 µM
GI50 [53]: 1.83 µM
TGI [53]: > 100 µM
GI50 [15]: 2.9 µM
TGI [15]: 18.6 µM
GI50 [16]: 8.35 µM
TGI [16]: 98.2 µM
GI50 [17]: 2.52 µM
TGI [17]: 23.3 µM
GI50 [18]: 4.4 µM
TGI [18]: > 100 µM
GI50 [54]: 2.66 µM
TGI [54]: 9.4 µM
GI50 [19]: 3.44 µM
TGI [19]: > 100 µM
GI50 [21]: 6.86 µM
TGI [21]: > 100 µM
GI50 [22]: 0.929 µM
TGI [22]: 3.93 µM
GI50 [23]: 2.61 µM
TGI [23]: 10.8 µM
GI50 [24]: 4.84 µM
TGI [24]: > 100 µM
GI50 [55]: 3.11 µM
TGI [55]: 29 µM
GI50 [25]: 7.9 µM
TGI [25]: 78.1 µM
GI50 [26]: 9.08 µM
TGI [26]: > 100 µM
GI50 [27]: 2.17 µM
TGI [27]: 10.1 µM
GI50 [28]: 2.39 µM
TGI [28]: 9.91 µM
GI50 [29]: 3.35 µM
TGI [29]: > 100 µM
GI50 [30]: 5.01 µM
TGI [30]: 80.8 µM
GI50 [31]: 4.78 µM
TGI [31]: > 100 µM
GI50 [32]: 4.9 µM
TGI [32]: 53.8 µM
GI50 [33]: 11.4 µM
TGI [33]: > 100 µM
GI50 [34]: 4.07 µM
TGI [34]: > 100 µM
GI50 [35]: 4.11 µM
TGI [35]: 91.7 µM
GI50 [36]: 3.48 µM
TGI [36]: 81.2 µM
GI50 [37]: 2.95 µM
TGI [37]: 17.7 µM
GI50 [39]: 6.22 µM
TGI [39]: > 100 µM
GI50 [40]: 3.77 µM
TGI [40]: 27.8 µM
GI50 [41]: 0.24 µM
TGI [41]: 9.1 µM
GI50 [42]: 6.16 µM
TGI [42]: > 100 µM
GI50 [43]: 3.81 µM
TGI [43]: 18.6 µM
GI50 [44]: 19.4 µM
TGI [44]: > 100 µM
GI50 [56]: 2.36 µM
TGI [56]: 8.6 µM
GI50 [45]: 2.9 µM
TGI [45]: 35.7 µM
GI50 [46]: 2.57 µM
TGI [46]: 17.7 µM
GI50 [47]: 4.23 µM
TGI [47]: > 100 µM
GI50 [48]: 3.62 µM
TGI [48]: 43.4 µM
GI50 [49]: 3.71 µM
TGI [49]: 47.5 µM
GI50 [57]: 1.9 µM
TGI [57]: 6.8 µM
GI50 [50]: 2.78 µM
TGI [50]: > 100 µM
GI50 [58]: 3.24 µM
TGI [58]: > 100 µM
GI50 [51]: 8.62 µM
TGI [51]: 93.3 µM
GI50 [52]: 15 µM
TGI [52]: > 100 µM

Cc1ccc(C2(c3ccc(C)cc3)SC(=C(C#N)C#N)c3ccccc32)cc1
TGI [2]: > 100 µM
TGI [3]: > 100 µM
TGI [4]: > 100 µM
TGI [5]: > 100 µM
TGI [6]: > 100 µM
TGI [7]: > 100 µM
TGI [8]: > 100 µM
TGI [9]: > 100 µM
TGI [10]: > 100 µM
TGI [11]: > 100 µM
TGI [12]: > 100 µM
TGI [14]: > 100 µM
TGI [53]: > 100 µM
TGI [15]: > 100 µM
TGI [17]: > 100 µM
TGI [18]: > 100 µM
TGI [54]: > 100 µM
TGI [19]: > 100 µM
TGI [20]: > 100 µM
TGI [21]: > 100 µM
TGI [22]: > 100 µM
TGI [23]: > 100 µM
TGI [24]: > 100 µM
TGI [25]: > 100 µM
TGI [27]: > 100 µM
TGI [28]: > 100 µM
TGI [29]: > 100 µM
TGI [30]: > 100 µM
TGI [31]: > 100 µM
TGI [32]: > 100 µM
TGI [34]: > 100 µM
TGI [35]: > 100 µM
TGI [36]: > 100 µM
TGI [37]: > 100 µM
TGI [39]: > 100 µM
TGI [40]: > 100 µM
TGI [41]: > 100 µM
TGI [42]: > 100 µM
TGI [43]: > 100 µM
TGI [44]: > 100 µM
TGI [56]: > 100 µM
TGI [45]: > 100 µM
TGI [46]: > 100 µM
TGI [47]: > 100 µM
TGI [48]: > 100 µM
TGI [49]: > 100 µM
TGI [50]: > 100 µM
TGI [58]: > 100 µM
TGI [51]: > 100 µM
TGI [52]: > 100 µM

N#CCCOc1cccc(C2(N3CCCCC3)CCCCC2)c1
TGI [2]: > 100 µM
TGI [3]: > 100 µM
TGI [4]: > 100 µM
TGI [6]: > 100 µM
TGI [7]: > 100 µM
TGI [8]: > 100 µM
TGI [9]: > 100 µM
TGI [10]: > 100 µM
TGI [11]: > 100 µM
TGI [12]: > 100 µM
TGI [13]: > 100 µM
TGI [14]: > 100 µM
TGI [53]: > 100 µM
TGI [15]: > 100 µM
TGI [16]: > 100 µM
TGI [18]: > 100 µM
TGI [54]: > 100 µM
TGI [19]: > 100 µM
TGI [20]: > 100 µM
TGI [21]: > 100 µM
TGI [22]: > 100 µM
TGI [23]: > 100 µM
TGI [24]: > 100 µM
TGI [55]: > 100 µM
TGI [26]: > 100 µM
TGI [27]: > 100 µM
TGI [28]: > 100 µM
TGI [29]: > 100 µM
TGI [30]: > 100 µM
TGI [31]: > 100 µM
TGI [32]: > 100 µM
TGI [33]: > 100 µM
TGI [34]: > 100 µM
TGI [35]: > 100 µM
TGI [36]: > 100 µM
TGI [37]: > 100 µM
TGI [38]: > 100 µM
TGI [39]: > 100 µM
TGI [40]: > 100 µM
TGI [41]: > 100 µM
TGI [42]: > 100 µM
TGI [43]: > 100 µM
TGI [56]: > 100 µM
TGI [45]: > 100 µM
TGI [46]: > 100 µM
TGI [47]: > 100 µM
TGI [48]: > 100 µM
TGI [49]: > 100 µM
TGI [57]: > 100 µM
TGI [50]: > 100 µM
TGI [58]: > 100 µM
TGI [51]: > 100 µM
TGI [52]: > 100 µM

— PubChem BioAssay (NCI)
